Measurements taken from PubChem BioAssay (NCI).
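Protocol summary: plate cells (96-well), add compound at 5 concentrations, incubate 48 h, interpolate endpoints linearly. GI50 = concentration required for 50% inhibition of growth. Definition used: TGI = concentration required for complete inhibition of growth.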

Experiments:
Assay in all cases: inhibition of tumour cell growth, NCI panel, 48 h
786-0 renal = system: 786-0 renal
A498 renal = system: A498 renal
A549 NSCLC = system: A549 NSCLC
ACHN renal = system: ACHN renal
BT-549 breast = system: BT-549 breast
CCRF-CEM leukemia = system: CCRF-CEM leukemia
COLO 205 colon = system: COLO 205 colon
DU-145 prostate = system: DU-145 prostate
EKVX NSCLC = system: EKVX NSCLC
HCC-2998 colon = system: HCC-2998 colon
HCT-116 colon = system: HCT-116 colon
HCT-15 colon = system: HCT-15 colon
HOP-62 NSCLC = system: HOP-62 NSCLC
HOP-92 NSCLC = system: HOP-92 NSCLC
HS 578T breast = system: HS 578T breast
HT29 colon = system: HT29 colon
IGROV1 ovarian = system: IGROV1 ovarian
K-562 leukemia = system: K-562 leukemia
KM12 colon = system: KM12 colon
LOX IMVI melanoma = system: LOX IMVI melanoma
M14 melanoma = system: M14 melanoma
MALME-3M melanoma = system: MALME-3M melanoma
MCF7 breast = system: MCF7 breast
MDA-MB-231 breast = system: MDA-MB-231 breast
MDA-MB-435 = system: MDA-MB-435
NCI-H23 lung = system: NCI-H23 lung
NCI-H460 lung = system: NCI-H460 lung
NCI-H522 lung = system: NCI-H522 lung
NCI/ADR-RES ovarian = system: NCI/ADR-RES ovarian
OVCAR-3 ovarian = system: OVCAR-3 ovarian
OVCAR-4 ovarian = system: OVCAR-4 ovarian
OVCAR-5 ovarian = system: OVCAR-5 ovarian
OVCAR-8 ovarian = system: OVCAR-8 ovarian
PC-3 prostate = system: PC-3 prostate
RPMI-8226 leukemia = system: RPMI-8226 leukemia
RXF 393 renal = system: RXF 393 renal
SF-268 CNS = system: SF-268 CNS
SF-295 CNS = system: SF-295 CNS
SF-539 CNS = system: SF-539 CNS
SK-MEL-2 melanoma = system: SK-MEL-2 melanoma
SK-MEL-28 melanoma = system: SK-MEL-28 melanoma
SK-MEL-5 melanoma = system: SK-MEL-5 melanoma
SK-OV-3 ovarian = system: SK-OV-3 ovarian
SN12C renal = system: SN12C renal
SNB-19 CNS = system: SNB-19 CNS
SNB-75 CNS = system: SNB-75 CNS
SW-620 colon = system: SW-620 colon
T-47D breast = system: T-47D breast
TK-10 renal = system: TK-10 renal
U251 CNS = system: U251 CNS
UACC-257 melanoma = system: UACC-257 melanoma
UACC-62 melanoma = system: UACC-62 melanoma
UO-31 renal = system: UO-31 renal

Clc1c(Cl)[n+](Cc2ccc3ccccc3c2)cn1Cc1ccc2ccccc2c1
GI50 (786-0 renal): 1650 nM | TGI (786-0 renal): 3.11 µM | GI50 (A498 renal): 1230 nM | TGI (A498 renal): 2920 nM | GI50 (A549 NSCLC): 3.32 µM | TGI (A549 NSCLC): 11.7 µM | GI50 (ACHN renal): 1920 nM | TGI (ACHN renal): 3.66 µM | GI50 (BT-549 breast): 1670 nM | TGI (BT-549 breast): 3.09 µM | GI50 (CCRF-CEM leukemia): 2890 nM | TGI (CCRF-CEM leukemia): 7.06 µM | GI50 (COLO 205 colon): 1130 nM | TGI (COLO 205 colon): 2570 nM | GI50 (DU-145 prostate): 1530 nM | TGI (DU-145 prostate): 3.01 µM | GI50 (EKVX NSCLC): 1830 nM | TGI (EKVX NSCLC): 4.98 µM | GI50 (HCC-2998 colon): 1530 nM | TGI (HCC-2998 colon): 3.05 µM | GI50 (HCT-116 colon): 1450 nM | TGI (HCT-116 colon): 2870 nM | GI50 (HCT-15 colon): 1820 nM | TGI (HCT-15 colon): 3.62 µM | GI50 (HOP-62 NSCLC): 1260 nM | TGI (HOP-62 NSCLC): 2610 nM | GI50 (HOP-92 NSCLC): 733 nM | TGI (HOP-92 NSCLC): 2140 nM | GI50 (HS 578T breast): 1710 nM | TGI (HS 578T breast): 4.41 µM | GI50 (HT29 colon): 570 nM | TGI (HT29 colon): 2010 nM | GI50 (IGROV1 ovarian): 1330 nM | TGI (IGROV1 ovarian): 2930 nM | GI50 (K-562 leukemia): 1710 nM | TGI (K-562 leukemia): 3.73 µM | GI50 (KM12 colon): 1530 nM | TGI (KM12 colon): 3.05 µM | GI50 (LOX IMVI melanoma): 1260 nM | TGI (LOX IMVI melanoma): 2520 nM | GI50 (M14 melanoma): 1210 nM | TGI (M14 melanoma): 2800 nM | GI50 (MALME-3M melanoma): 1400 nM | TGI (MALME-3M melanoma): 3.15 µM | GI50 (MCF7 breast): 1320 nM | TGI (MCF7 breast): 2880 nM | GI50 (MDA-MB-231 breast): 1420 nM | TGI (MDA-MB-231 breast): 2930 nM | GI50 (MDA-MB-435): 1240 nM | TGI (MDA-MB-435): 2640 nM | GI50 (NCI-H23 lung): 1350 nM | TGI (NCI-H23 lung): 3.15 µM | GI50 (NCI-H460 lung): 1530 nM | TGI (NCI-H460 lung): 2980 nM | GI50 (NCI-H522 lung): 1120 nM | TGI (NCI-H522 lung): 2670 nM | GI50 (NCI/ADR-RES ovarian): 16.3 µM | TGI (NCI/ADR-RES ovarian): 38 µM | GI50 (OVCAR-3 ovarian): 1340 nM | TGI (OVCAR-3 ovarian): 2690 nM | GI50 (OVCAR-4 ovarian): 1360 nM | TGI (OVCAR-4 ovarian): 3 µM | GI50 (OVCAR-5 ovarian): 1540 nM | TGI (OVCAR-5 ovarian): 3.32 µM | GI50 (OVCAR-8 ovarian): 1650 nM | TGI (OVCAR-8 ovarian): 3.3 µM | GI50 (PC-3 prostate): 1460 nM | TGI (PC-3 prostate): 2870 nM | GI50 (RPMI-8226 leukemia): 1250 nM | TGI (RPMI-8226 leukemia): 3.55 µM | GI50 (RXF 393 renal): 1630 nM | TGI (RXF 393 renal): 3.1 µM | GI50 (SF-268 CNS): 1220 nM | TGI (SF-268 CNS): 2550 nM | GI50 (SF-295 CNS): 1400 nM | TGI (SF-295 CNS): 2820 nM | GI50 (SF-539 CNS): 1570 nM | TGI (SF-539 CNS): 2980 nM | GI50 (SK-MEL-2 melanoma): 1670 nM | TGI (SK-MEL-2 melanoma): 3.24 µM | GI50 (SK-MEL-28 melanoma): 1630 nM | TGI (SK-MEL-28 melanoma): 3.04 µM | GI50 (SK-MEL-5 melanoma): 1130 nM | TGI (SK-MEL-5 melanoma): 2390 nM | GI50 (SK-OV-3 ovarian): 1390 nM | TGI (SK-OV-3 ovarian): 3.75 µM | GI50 (SN12C renal): 1530 nM | TGI (SN12C renal): 2990 nM | GI50 (SNB-19 CNS): 1320 nM | TGI (SNB-19 CNS): 2700 nM | GI50 (SNB-75 CNS): 836 nM | TGI (SNB-75 CNS): 2210 nM | GI50 (SW-620 colon): 1470 nM | TGI (SW-620 colon): 3000 nM | GI50 (T-47D breast): 504 nM | TGI (T-47D breast): 2090 nM | GI50 (TK-10 renal): 1580 nM | TGI (TK-10 renal): 3.11 µM | GI50 (U251 CNS): 1530 nM | TGI (U251 CNS): 2940 nM | GI50 (UACC-257 melanoma): 1740 nM | TGI (UACC-257 melanoma): 3.51 µM | GI50 (UACC-62 melanoma): 1130 nM | TGI (UACC-62 melanoma): 2450 nM | GI50 (UO-31 renal): 1720 nM | TGI (UO-31 renal): 4.56 µM
